Test results: patent US5631263A, “Use of delta opioid receptor antagonists to treat immunoregulatory disorders” (Minneapolis Medical Research Foundation, priority 1995, dated 1997)
“Also recorded” adds a separate entry of the source.

What was measured:
δ1 opioid receptor = molecular target: T1, δ1 opioid receptor (Mus musculus, UniProt P32300); assay: antagonism of DPDPE in smooth muscle; format: cell-based; details: Table VIII, read-out: Smooth Muscle Ke, DPDPE (δ1)
T1 construct: Both vasa deferentia were dissected out of mice; from tissue; host or cells: smooth muscle preparation, inferred mouse vas deferens
T1 sequence (P32300 whole entry): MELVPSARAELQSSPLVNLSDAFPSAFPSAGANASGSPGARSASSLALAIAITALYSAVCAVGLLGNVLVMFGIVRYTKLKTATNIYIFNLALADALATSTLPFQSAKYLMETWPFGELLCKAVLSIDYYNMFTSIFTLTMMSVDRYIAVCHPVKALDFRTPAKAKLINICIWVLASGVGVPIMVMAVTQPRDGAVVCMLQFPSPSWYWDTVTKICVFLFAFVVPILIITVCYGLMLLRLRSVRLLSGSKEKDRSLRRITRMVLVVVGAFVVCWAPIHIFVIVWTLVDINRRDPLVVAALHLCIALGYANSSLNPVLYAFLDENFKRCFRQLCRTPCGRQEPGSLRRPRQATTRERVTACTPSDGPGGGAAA
From the text: (§1) Concentration-response curves were obtained in the absence (control) and the presence of the antagonist are expressed as IC50 values. […] Therefore, a high IC50 ratio represents a correspondingly high degree of antagonism at a particular receptor. […] Therefore, a low Ke represents a correspondingly high degree of binding at a particular receptor.

δ2 receptors = molecular target: T2, δ2 receptors (Cavia porcellus, UniProt A0A286XTF2); assay: binding to guinea pig brain membranes, [3H]DSLET
T2 construct: guinea pig brain membranes; from tissue; host or cells: guinea pig brain membranes
T2 sequence (A0A286XTF2 1-366): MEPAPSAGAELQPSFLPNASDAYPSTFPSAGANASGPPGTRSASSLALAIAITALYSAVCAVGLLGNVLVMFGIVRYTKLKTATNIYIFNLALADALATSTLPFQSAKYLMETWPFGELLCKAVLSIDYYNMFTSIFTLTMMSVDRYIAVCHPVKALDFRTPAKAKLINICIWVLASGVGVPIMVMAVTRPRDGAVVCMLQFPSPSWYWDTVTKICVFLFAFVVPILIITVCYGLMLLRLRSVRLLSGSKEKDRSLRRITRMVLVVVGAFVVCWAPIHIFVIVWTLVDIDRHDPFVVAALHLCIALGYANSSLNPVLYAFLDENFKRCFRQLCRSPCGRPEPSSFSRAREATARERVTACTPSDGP
Experimental: (§2) Therefore, a better assessment of the δ subtype selectivity can be obtained from binding of brain membranes and from antagonism studies in mice. The binding of BNTX to guinea pig brain membranes was determined using the general method of L. L. Werling et al., J. Pharmacol. Exp. Ther., 233, 722 (1985), as modified by A. E. Takemori et al., J. Pharmacol. Exp. Ther., 246, 255 (1988). The radio-ligands employed were [^3 H]DPDPE ([D-Pen^2, D-Pen^5 ] enkephalin) for δ1receptors, [^3 H]DSLET([D-Ser^2 -Leus]enkephalin-Thr^6) for δ^2 receptors, [3H]DAMGO for μ receptors and U69593(trans-(±)-3,4-dichloro-N-methyl-N-[2-(lpyrididinyl)cyclohexyl]benzeneacetamide) for κ receptors.

δ1 receptors = molecular target: T3, δ1 receptors (Cavia porcellus, UniProt A0A286XTF2); assay: binding to guinea pig brain membranes, [3H]DPDPE
T3 construct: guinea pig brain membranes; from tissue; host or cells: guinea pig brain membranes
T3 sequence (A0A286XTF2 1-366): as above
Experimental: as §2

δ opioid receptor = molecular target: T4, δ opioid receptor (Mus musculus, UniProt P32300); assay: antagonism of DADLE on MVD preparations (Example 7); format: cell-based
T4 construct: Both vasa deferentia were dissected out of mice; from tissue; host or cells: mouse vas deferens (isolated, electrically stimulated)
T4 sequence (P32300 whole entry): as the sequence (P32300 whole entry) above
Experimental: 2. Mouse Vas Deferens (MVD). […] The organ bath was maintained at 37° C.
as §1

μ opioid receptor [1] = molecular target: T5, μ opioid receptor (Mus musculus, UniProt P42866); assay: tail flick assay, antagonism of antinociception by μ agonist; format: in vivo, mice; details: BNTX 6.25 pmol/i.c.v./mouse
T5 construct: evaluated in mice using the tail flick assay; from tissue; host or cells: living mice (i.c.v. injection)
T5 sequence (P42866 whole entry): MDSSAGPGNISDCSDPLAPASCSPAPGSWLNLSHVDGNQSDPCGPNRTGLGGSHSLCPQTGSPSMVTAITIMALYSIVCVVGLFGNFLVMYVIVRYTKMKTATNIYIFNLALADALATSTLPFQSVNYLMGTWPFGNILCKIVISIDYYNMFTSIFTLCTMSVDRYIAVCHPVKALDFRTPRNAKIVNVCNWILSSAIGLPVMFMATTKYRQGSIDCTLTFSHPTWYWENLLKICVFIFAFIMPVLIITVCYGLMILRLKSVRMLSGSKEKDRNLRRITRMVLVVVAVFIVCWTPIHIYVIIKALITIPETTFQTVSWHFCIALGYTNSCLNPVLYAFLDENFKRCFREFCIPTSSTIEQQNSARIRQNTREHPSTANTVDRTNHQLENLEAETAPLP
Experimental: (§3) The antagonist effect of BNTX on antinociceptin was evaluated in mice using the tail flick assay, in accord with the procedure of F. C. Tulunay et al., J. Pharmacol. Exp. Ther., 243, 91 (1987). At least three groups of ten mice were used to generate dose-response curves. A mouse was regarded as positive for antinociception if the latency to flick its tail was more than the control latency plus 3 S.D. of the mean reaction time of the group. The reaction times were determined at the peak time for antinociception after administration of various agonists. Intracerebroventricular (i.c.v.) injections were made in a volume of 5 μl by the method of T. J. Haley et al., Br. J. Pharmacol., 12, 12 (1957).
(§4) On Table VIII, the potencies are expressed as ED50 ratios, which represent the ED50 of the standard agonist administered subcutaneously in the presence of BNTX (6.25 pmol/i.c.v./mouse), divided by the ED50 of the standard agonist.

κ opioid receptor [2] = molecular target: T6, κ opioid receptor (Cavia porcellus, UniProt P41144); assay: antagonism of ethylketazocine in the GPI (Example 7); format: cell-based, guinea pig; details: ethylketazocine as agonist, read-out: Ke, κ (Table VII)
T6 construct: a strip of longitudinal muscle with the myenteric plexus attached was prepared; from tissue; host or cells: guinea pig ileum longitudinal muscle with myenteric plexus
T6 sequence (P41144 whole entry): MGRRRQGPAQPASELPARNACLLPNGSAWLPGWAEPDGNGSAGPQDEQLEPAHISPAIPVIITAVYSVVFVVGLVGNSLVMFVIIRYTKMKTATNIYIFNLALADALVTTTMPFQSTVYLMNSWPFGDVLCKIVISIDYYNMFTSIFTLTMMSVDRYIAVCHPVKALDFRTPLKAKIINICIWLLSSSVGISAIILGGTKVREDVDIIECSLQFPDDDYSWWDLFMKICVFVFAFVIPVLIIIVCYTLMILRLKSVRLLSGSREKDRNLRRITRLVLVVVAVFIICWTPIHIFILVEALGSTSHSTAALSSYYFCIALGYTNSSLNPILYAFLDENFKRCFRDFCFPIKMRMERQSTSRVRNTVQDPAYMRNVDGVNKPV
Experimental: (§5) 1. Guinea Pig Ileal Longitudinal Muscle (GPI). Ilea from guinea pigs were taken approximately 10 cm from the ileocaecal junction, and a strip of longitudinal muscle with the myenteric plexus attached was prepared by method of Rang et al., Brit. J. Pharmacol., 22, 356 (1964), the disclosure of which is incorporated by reference herein. A 1 cm portion of this strip was then mounted between two platinum electrodes placed in a 10 ml organ bath and connected to an isometric transducer. Contractions were recorded on a polygraph. […] The organ bath was maintained at 36°-37° C. The longitudinal muscle strip was allowed to equilibrate with continuous stimulation for a minimum of 90 min.

κ opioid receptor [3] = molecular target: T7, κ opioid receptor (Mus musculus, UniProt P33534); assay: tail flick assay, antagonism of antinociception by U50488H; format: in vivo, mice; details: BNTX 6.25 pmol/i.c.v./mouse
T7 construct: evaluated in mice using the tail flick assay; from tissue; host or cells: living mice (i.c.v. injection)
T7 sequence (P33534 whole entry): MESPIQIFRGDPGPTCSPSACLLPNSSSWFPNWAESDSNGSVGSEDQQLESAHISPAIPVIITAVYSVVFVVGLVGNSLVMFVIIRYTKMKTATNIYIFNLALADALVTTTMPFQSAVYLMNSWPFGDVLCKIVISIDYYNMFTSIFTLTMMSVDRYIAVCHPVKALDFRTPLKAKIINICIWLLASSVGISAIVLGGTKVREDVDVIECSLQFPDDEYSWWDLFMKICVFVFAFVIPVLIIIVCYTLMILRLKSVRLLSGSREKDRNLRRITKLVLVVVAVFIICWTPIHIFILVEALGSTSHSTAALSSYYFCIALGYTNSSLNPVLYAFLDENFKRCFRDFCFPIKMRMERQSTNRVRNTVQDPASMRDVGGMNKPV
Experimental: as §3, §4

δ2 opioid receptor [4] = molecular target: T8, δ2 opioid receptor (Mus musculus, UniProt P32300); assay: antagonism of DSLET in smooth muscle; format: cell-based; set-up: Both vasa deferentia were dissected out of mice; from tissue; host or cells: smooth muscle preparation, inferred mouse vas deferens; details: Table VIII, read-out: Smooth Muscle Ke, DSLET (δ2)
T8 sequence (P32300 whole entry): as the sequence (P32300 whole entry) above
From the text: as §1

μ receptors = μ receptors (Cavia porcellus, UniProt A0ACM8Q262); assay: binding to guinea pig brain membranes, [3H]DAMGO
Chain of μ receptors (A0ACM8Q262 1-400): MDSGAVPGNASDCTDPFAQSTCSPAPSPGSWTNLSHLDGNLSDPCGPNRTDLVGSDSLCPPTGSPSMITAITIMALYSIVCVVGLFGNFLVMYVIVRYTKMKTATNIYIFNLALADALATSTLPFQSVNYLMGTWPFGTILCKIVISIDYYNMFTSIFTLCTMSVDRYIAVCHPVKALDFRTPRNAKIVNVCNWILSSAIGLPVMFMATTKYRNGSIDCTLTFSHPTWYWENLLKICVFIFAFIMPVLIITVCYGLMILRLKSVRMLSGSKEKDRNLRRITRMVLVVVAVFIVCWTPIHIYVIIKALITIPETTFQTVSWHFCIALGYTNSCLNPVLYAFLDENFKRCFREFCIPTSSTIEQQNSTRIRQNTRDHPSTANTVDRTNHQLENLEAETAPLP

μ opioid receptor [5] = molecular target: μ opioid receptor (Cavia porcellus, UniProt A0ACM8Q262); assay: antagonism of morphine in the GPI (Example 7); format: cell-based, guinea pig; details: morphine as agonist, read-out: Ke, μ (Table VII)
Chain of μ opioid receptor (Cavia porcellus, UniProt A0ACM8Q262) (A0ACM8Q262 1-400): as above
Experimental: as §5

δ2 opioid receptor [6] = molecular target: T8, δ2 opioid receptor; assay: tail flick assay, antagonism of antinociception by DSLET; format: in vivo, mice; set-up: evaluated in mice using the tail flick assay; from tissue; host or cells: living mice (i.c.v. injection); details: BNTX 6.25 pmol/i.c.v./mouse
Experimental: as §3, §4

immune function = details: both in vivo and in vitro; cited from earlier work
mu opioid receptors [7] = details: read-out: Ke, M (morphine); GPI, agonist morphine; antagonist 100 or 200 nM, 15 min; cited from earlier work
[8] = test system: allogeneic murine spleen cells; details: cited from earlier work
delta opioid receptors = details: 20 mg/kg s.c.; in words; cited from earlier work
[9] = test system: splenic MNC (T and non-T cells); assay: depressed AMLR of splenic cells from mice infected with mCMV; format: cell-based; details: for reversal of AMLR suppressed by CMV 10^-4: AMLR suppressed 42%; for reversal of AMLR suppressed by CMV 10^-2: AMLR suppressed 20%
Experimental: Mice were injected i.p. with serial 10-fold dilutions of a stock mCMV solution. Dilutions of stock virus ranged from 10^-2 to 10^-6. Mice were sacrificed after 10 days of infection. Control mice were injected with saline.
Splenic MNC from CMV-infected and uninfected mice were purified by density gradient centrifugation on LSM, as described above for the rat splenic MNC. T and non-T cell fractions were separated by nylon wool columns as disclosed by M. H. Julius et al., Eur. J. Immunol., 3, 645 (1973). The T-enriched cells were used as responder cells. The non-T cells were treated with mitomycin-C to stop their proliferation, as described by K. M. Linner et al., Endocrinol., 128, 717 (1991) and used as stimulator cells. Autologous cell cultures were then set up, with equal numbers (2×10^5) of responder T and stimulator non-T cells being cultured in the 96-well microtiter plates. Cells were cultured for 5 days. To some wells, NTI at 10^-10, 10^-12 or 10^-14 M, concentrations determined to be optimal from the rat AMLR studies, was added for the duration of the culture period. ^3 H-thymidine was added to each well for the last 18 hr of incubation, and the cultures were harvested and counted as described above.

kappa opioid receptors = details: 20 mg/kg s.c.; in words; cited from earlier work
mu opioid receptors [10] = details: 20 mg/kg s.c.; in words; cited from earlier work
[11] = both in vivo and in vitro; cited from earlier work
renal allograft = details: in words; cited from earlier work
[12] = test system: mixed lymphocyte responses; details: cited from earlier work
[13] = test system: splenic mononuclear cells (MNC); assay: depressed AMLR of splenic MNC from rats infected with rat coronavirus; format: cell-based; details: FIG. 2
Experimental: Rats were anesthetized with a mixture of 8 mg/ml keta/nine and 2 mg/ml acepromazine (dose=0.1 ml/100 g body weight) and the spleens were removed aseptically. The animals were exsanguinated while under anesthesia. Splenic MNC were released from the surrounding connective tissue by dispersing through a wire mesh. The red blood cells were removed by density gradient centrifugation on ficol-hypaque (Lymphocyte Separation Medium, LSM, Organon Tecknika, Durham, N.C.). The purified MNC were washed in Hanks Balanced Salt Solution containing 1% gelatin and 2 mM EDTA and resuspended in RPMI-1640 medium containing 5% Fetal Bovine Serum (FBS), 100 U/ml penicillin, 100 ug/ml streptomycin and 5×10^-5 M 2-mercaptoethanol. In some experiments, TCM™, a defined medium supplement (CELOX, Minneapolis, Minn.), was used instead of FBS.
Purified MNC were placed in 96-well round bottom plates at 2×10^5cells/well in a total volume of 0.2 ml and incubated for 5 days at 37° C. […] The cells were then harvested onto glass fiber filter paper and counted in a Beckman (Fullerton, Calif.) scintillation counter. The results are calculated as the mean counts per minute of triplicate wells, and are expressed as percent of control (cpm suppressed AMLR/cpm control AMLR). […]

[14] = test system: enkephalin-binding receptor on cells of the immune system; details: in words; cited from earlier work

O=C1C(=Cc2ccccc2)C[C@@]2(O)[C@H]3Cc4ccc(O)c5c4[C@@]2(CCN3CC2CC2)[C@H]1O5 [BNTX, 7-Benzylidene-7-dehydronaltrexone]
Kb (δ1 opioid receptor): 5.2 nM
Ki (δ2 receptors): 10.8 nM
δ1 selectivity in words (δ1 receptors; binding): highly selective for δ1 receptor sites; also recorded: first δ1 opioid receptor subset-selective antagonist
Ki (δ1 receptors; guinea pig brain membranes): 0.1 nM
binding ratio, Ki(δ2)/Ki(δ1) (δ1 receptors; guinea pig brain membranes): about 100
Kb (δ opioid receptor): 2.9 nM
Ke Ratio κ/δ (δ opioid receptor; GPI ethylketazocine / MVD DADLE): 35
Ke Ratio μ/δ (δ opioid receptor; GPI morphine / MVD DADLE): 2.9
Ke ratios compared with NTI and naltrexone, in words (δ opioid receptor; Table VII data): less than those of the standard δ agonist NTI, but greater than those of naltrexone
receptor selectivity in words (δ opioid receptor; Table VII data): δ-selective antagonist
ED50 Ratio ("Potency Ratio"), DAMGO row (μ opioid receptor [1]): 0.88
shift of the morphine dose-response curve (μ opioid receptor [1]; in words): not shifted significantly
Kb (κ opioid receptor [2]): 100 nM
ED50 Ratio ("Potency Ratio"), U50488H (κ opioid receptor [3]): 1.2
shift of the U50488H dose-response curve (κ opioid receptor [3]; in words): not shifted significantly
Kb (δ2 opioid receptor [4]): 2.1 nM
Ki (μ receptors): 13.3 nM
Kb (μ opioid receptor [5]): 8.3 nM
ED50 Ratio ("Potency Ratio"), DSLET (δ2 opioid receptor [6]): 0.91
shift of the DSLET dose-response curve (δ2 opioid receptor [6]; in words): not shifted significantly

Oc1ccc2c3c1O[C@H]1c4[nH]c5ccccc5c4C[C@@]4(O)[C@@H](C2)N(CC2CC2)CC[C@]314 [Compound 1, 17-(cyclopropylmethyl)-6,7-dehydro-3,14β-dihydroxy-4,5α-epoxy-6,7-2',3'-indolmorphinan]
immunosuppression (immune function): immunosuppressive
Kb (mu opioid receptors [7]): 29.4 nM
MLR suppression [8]: strongly suppresses the MLR
block of writhing inhibition due to DSLET (delta opioid receptors): effectively blocked
reversal of the suppressed AMLR caused by CMV infection ([9]; FIGS. 4A and 4B): can reverse the suppressed AMLR
reversal of AMLR suppressed by CMV 10^-4 ([9]; NTI 10^-10 M): partially
reversal of AMLR suppressed by CMV 10^-2 ([9]; NTI 10^-12 and 10^-10 M): completely reversed
reversal of AMLR suppressed by CMV 10^-4 ([9]; NTI 10^-14 M-10^-12 M): reversed completely
reversal of AMLR suppressed by CMV 10^-2 ([9]; NTI 10^-14 M): not by NTI at 10^-14 M
antagonism of the effect of U50488H (kappa opioid receptors): without significantly antagonizing
antagonism of the effect of morphine (mu opioid receptors [10]): without significantly antagonizing
toxicity [11]: non-toxic
allograft survival (renal allograft): prolong allograft survival
effectiveness compared with cyclosporine A (CsA) ([12]; in both in vitro responses): less effective than cyclosporine A (CsA)
allogeneic and xenogeneic mixed lymphocyte responses ([12]; in vitro, in words): suppress in vitro allogeneic and xenogeneic mixed lymphocyte responses
reversal of depressed AMLR [13]: reversed

C=CCN1CC[C@]23c4c5ccc(O)c4O[C@H]2C(=O)CC[C@@]3(O)[C@H]1C5 [naloxone]
block of many of the effects of enkephalins on immune function [14]: blocked
